# Experimental data from US20220142967A1, “Methods and Compositions for the Treatment of Multiple Sclerosis” (SYMBIONYX PHARMACEUTICALS INC, priority 2018, published 2022).
# Counter-ions that a name gives are not always drawn.
# Assays:
# human fetal astrocytes = experiment: A1 v A2 marker activation, RNA-seq of H2O2-stimulated astrocytes; format: cell-based; conditions: 2.5 μM, 24 hrs, H2O2 (50 μM) stimulated
# Protocol: The treated cells were stimulated with H2O2 (50 μM) for 20 min and the RNA extracted 1 day later and sequenced using the Illumina HiSeq 2000 with an average of 39.3 million reads per sample. Reads were mapped to the GHch38/hg38 genome. 13,968 protein-coding genes had detectable expression on average among the 6 samples. Differentially expressed genes (DEGs) were identified using negative binomial models with FDR threshold of <0.10 and fold change (FC) criteria (FC>1.30 or FC<0.77). Gene set enrichment testing was performed using public database annotations. Motif enrichment with respect to DEG up-stream regions was characterized using semiparametric generalized additive logistics models. The overlap between the identified DEGs and MS-associated genes, i.e., genes from MS patients and genes linked to inflammatory (A1) and ischemic (A2) astrogliosis.
# [1] = test system: NFE2L2 (NRF2) binding sites; experiment: Enrichment of NFE2L2 (NRF2) and other binding sites upstream of IDMF-regulated genes; format: cell-based, human
# Protocol: RNA sample processing and microarray hybridizations were performed using the Affymetrix Human Genome U133 Plus 2.0 array platform. DNA microarray samples evaluated included IDMF- and vehicle-treated KCs (n=2 replicates per group). Samples were normalized using the robust multichip average (RMA) algorithm. Identification of probe sets with detectable expression was performed using the MAS 5.0 method, which identifies probe sets with above-background expression based upon the Wilcoxon signed rank test. To limit redundancy in downstream analyses, a single probe set was chosen to represent each protein-coding human gene featured on the microarray platform. This representative was chosen as the probe set with highest expression for each protein-coding human gene. These probe sets were then additionally filtered to include only those with detectable expression in at least 1 of the 4 samples (P<0.05, Wilcoxon signed rank test). Overall, this yielded a total of 12330 protein-coding genes that were included in analyses, with each gene represented by a single representative probe set. Bayesian linear models and moderated t-statistics were then used to evaluate differential expression for each of the 12330 genes (IDMF vs. CTL treatment; R package: limma). To control the false discovery rate (FDR), raw p-values generated from linear model analyses were adjusted using the Benjamini-Hochberg method.
# As noted in the background section above, the transcription factor nuclear factor (erythroid-derived 2)-like 2 (NFE2L2/NRF2) has previously been associated with multiple sclerosis. In this study, IDMF-regulated genes were evaluated to determine the extent to which IDMF led to the enrichment of NFE2L2/NRF2 binding sites in promoter-proximal regions. For these analyses, a NFE2L2/NRF2 binding site was obtained from the JASPAR database (JASPAR ID: MA0150). This binding site partially matches the consensus sequence 5-[A/G]TGAC—AGCA-3: additional information can be obtained from http://jaspar.genereg.net/cgi-bin/jaspar_db.pl?ID=MA0150.1&rm=present&collection=CORE. Tests for enrichment were performed by scanning regions 1 kb, 2 kb or 5 kb upstream of protein-coding genes, including either all sequence (conserved=No) or only sequences conserved among mammalian species (conserved=Yes). A positive Z statistic indicates a trend towards increased NFE2L2 (NRF2) binding sites in sequences upstream of IDMF-increased […] (DEGs), as compared to all other expressed genes). P-values indicate the significance of the reported Z statistic (semiparametric generalized additive logistic models). Predicted targets include IDMF-increased DEGs with the NFE2L2 (NRF2) binding site identified within the scanned upstream region.
compound,measurement,setting,value
"COC(=O)/C=C/C(=O)O[C@H]1CO[C@H]2[C@@H]1OC[C@H]2OC(=O)/C=C/C(=O)OC [IDMF, isosorbide di-(methyl fumarate)]",ICAM1 expression,human fetal astrocytes,downregulate
same,expression of genes linked to A2-polarization,human fetal astrocytes,tended to increase the expression
same,expression of genes linked to pan-reactive gliosis,human fetal astrocytes,decreasing
same,enrichment of NF-kappaB binding sites upstream of IDMF-decreased genes,"[1]; FDR<0.10 with FC<0.67, P=1.16E-08",strongly enriched
same,"Z Statistic, enrichment of NFE2L2 (NRF2) binding sites upstream of IDMF-increased DEGs","[1]; Region 1 kb, Conserved No",4.74
same,"Z Statistic, enrichment of NFE2L2 (NRF2) binding sites upstream of IDMF-increased DEGs","[1]; Region 1 kb, Conserved Yes",5.91
same,"Z Statistic, enrichment of NFE2L2 (NRF2) binding sites upstream of IDMF-increased DEGs","[1]; Region 2 kb, Conserved No",3.37
same,"Z Statistic, enrichment of NFE2L2 (NRF2) binding sites upstream of IDMF-increased DEGs","[1]; Region 2 kb, Conserved Yes",3.21
same,"Z Statistic, enrichment of NFE2L2 (NRF2) binding sites upstream of IDMF-increased DEGs","[1]; Region 5 kb, Conserved No",2.11
same,"Z Statistic, enrichment of NFE2L2 (NRF2) binding sites upstream of IDMF-increased DEGs","[1]; Region 5 kb, Conserved Yes",1.05
